# Reference: ChEMBL document CHEMBL4630908 (2021)
# The source made the active and inactive calls. The calls are words filed in the database; no cut-off is given here.
# How the values were obtained:
# D(2) dopamine receptor [1] = target: T1, D(2) dopamine receptor (Homo sapiens, UniProt P14416); settings: Compound concentration 10.0 uM
# [2] = target: GABA-A receptor; anion channel; test: (§1) Cross screening panel; format: protein-complex assay
# [3] = target: Bromodomain adjacent to zinc finger domain protein 2A (Homo sapiens, UniProt Q9UIF9); test: BAZ2A DiscoverX BROMOscan
# [4] = target: 5-hydroxytryptamine receptor 3A (Homo sapiens) (UniProt P46098); settings: Compound concentration 10.0 uM
# [5] = target: Alpha-1B adrenergic receptor (Homo sapiens) (UniProt P35368); settings: Compound concentration 10.0 uM
# [6] = target: T2, Bromodomain testis-specific protein (Homo sapiens, UniProt Q58F21); test: BET mutant TR-FRET assay (BRDT BD1)
# [7] = target: T3, Bromodomain-containing protein 2 (Homo sapiens, UniProt P25440); test: TR-FRET assay (BRD2 BD1)
# Target sequence in this assay (P25440 whole entry): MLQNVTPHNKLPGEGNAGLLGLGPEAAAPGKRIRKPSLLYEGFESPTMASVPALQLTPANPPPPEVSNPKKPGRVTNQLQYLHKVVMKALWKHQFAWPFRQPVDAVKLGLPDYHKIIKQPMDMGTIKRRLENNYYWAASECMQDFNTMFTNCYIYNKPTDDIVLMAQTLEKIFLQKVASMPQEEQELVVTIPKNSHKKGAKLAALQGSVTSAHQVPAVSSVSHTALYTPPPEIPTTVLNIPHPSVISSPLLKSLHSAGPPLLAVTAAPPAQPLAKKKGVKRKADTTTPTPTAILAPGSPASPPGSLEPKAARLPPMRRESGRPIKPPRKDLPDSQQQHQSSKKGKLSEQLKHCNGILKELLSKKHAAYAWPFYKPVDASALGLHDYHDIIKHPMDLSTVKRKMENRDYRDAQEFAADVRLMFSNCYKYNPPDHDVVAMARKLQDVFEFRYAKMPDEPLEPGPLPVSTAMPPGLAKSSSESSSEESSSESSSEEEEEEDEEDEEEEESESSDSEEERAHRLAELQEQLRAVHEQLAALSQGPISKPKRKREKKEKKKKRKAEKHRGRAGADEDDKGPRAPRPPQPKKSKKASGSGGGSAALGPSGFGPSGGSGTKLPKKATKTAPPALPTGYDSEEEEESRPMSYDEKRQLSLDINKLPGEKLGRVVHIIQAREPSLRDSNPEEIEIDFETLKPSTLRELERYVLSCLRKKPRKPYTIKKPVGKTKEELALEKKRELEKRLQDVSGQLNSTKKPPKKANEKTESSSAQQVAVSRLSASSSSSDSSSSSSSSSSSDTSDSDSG
# [8] = target: T4, Kappa-type opioid receptor (Homo sapiens, UniProt P41145); settings: Compound concentration 10.0 uM
# [9] = target: T2, Bromodomain testis-specific protein; test: TR-FRET assay (BRDT BD1)
# [10] = target: Chromatin remodeling regulator CECR2 (Homo sapiens, UniProt Q9BXF3); test: CECR2 DiscoverX BROMOscan
# [11] = target: Transcription initiation factor TFIID subunit 1-like (Homo sapiens, UniProt Q8IZX4); test: TAF1L(2) DiscoverX BROMOscan
# [12] = target: T3, Bromodomain-containing protein 2; test: BET mutant TR-FRET assay (BRD2 BD1)
# Target sequence in this assay (P25440 whole entry, looked up, change not shown): as the sequence (P25440 whole entry) above
# [13] = target: T3, Bromodomain-containing protein 2; test: BRD2 BD2 Bromoscan (DiscoverX)
# Target sequence in this assay (P25440 whole entry): as above
# [14] = target: T3, Bromodomain-containing protein 2; test: BET mutant TR-FRET assay (BRD2 BD2)
# Target sequence in this assay (P25440 whole entry, looked up, change not shown): as the sequence (P25440 whole entry) above
# C-C motif chemokine 2 = C-C motif chemokine 2 (Homo sapiens, UniProt P13500); test: In vitro inhibition of MCP-1 in Lipopolysaccharide-stimulated human whole blood; format: tissue-based
# [15] = target: E3 ubiquitin-protein ligase TRIM33 (Homo sapiens, UniProt Q9UPN9); test: TRIM33(PHD,Bromo.) DiscoverX BROMOscan
# [16] = target: SWI/SNF-related matrix-associated actin-dependent regulator of chromatin subfamily A member 4 (Homo sapiens, UniProt P51532); test: SMARCA4 DiscoverX BROMOscan
# [17] = target: Transcription initiation factor TFIID subunit 1 (Homo sapiens, UniProt P21675); test: TAF1(2) DiscoverX BROMOscan
# [18] = target: GABA-A receptor; anion channel (Rattus norvegicus) (UniProt O09028+P15431+P18506+P18508+P19969+P20236+P23574+P23576+P28471+P28473+P30191+P62813+P63079+P63138+Q91ZM7+Q9ES14); settings: Compound concentration 10.0 uM
# [19] = target: 5-hydroxytryptamine receptor 3A (Homo sapiens, UniProt P46098); test: as §1
# [20] = target: 3',5'-cyclic-AMP phosphodiesterase 4B (Homo sapiens, UniProt Q07343); test: as §1
# [21] = target: Sodium channel protein type 5 subunit alpha (Homo sapiens, UniProt Q14524); test: as §1
# Acetylcholinesterase = Acetylcholinesterase (Homo sapiens, UniProt P22303); test: as §1
# Mu-type opioid receptor = Mu-type opioid receptor (Homo sapiens, UniProt P35372); test: as §1
# [22] = target: T4, Kappa-type opioid receptor; test: as §1
# Aurora kinase B = Aurora kinase B (Homo sapiens, UniProt Q96GD4); test: as §1
# [23] = target: Alpha-2C adrenergic receptor (Homo sapiens, UniProt P18825); test: as §1
# [24] = target: cGMP-inhibited 3',5'-cyclic phosphodiesterase 3A (Homo sapiens, UniProt Q14432); test: as §1
# [25] = target: Muscarinic acetylcholine receptor M1 (Homo sapiens, UniProt P11229); test: as §1
# [26] = target: Acetylcholine receptor subunit alpha (Homo sapiens, UniProt P02708); test: as §1
# [27] = target: Glutamate receptor ionotropic, NMDA 2B (Homo sapiens, UniProt Q13224); test: as §1
# Adenosine receptor A2a = Adenosine receptor A2a (Homo sapiens, UniProt P29274); test: as §1
# [28] = target: Solute carrier organic anion transporter family member 1B1 (Homo sapiens, UniProt Q9Y6L6); test: as §1
# [29] = target: Alpha-1B adrenergic receptor (Homo sapiens, UniProt P35368); test: as §1
# [30] = target: Aryl hydrocarbon receptor (Homo sapiens, UniProt P35869); test: as §1
# [31] = target: Tyrosine-protein kinase Lck (Homo sapiens, UniProt P06239); test: as §1
# [32] = target: 5-hydroxytryptamine receptor 2A (Homo sapiens, UniProt P28223); test: as §1
# [33] = target: Amine oxidase [flavin-containing] A (Homo sapiens, UniProt P21397); test: as §1
# Substance-P receptor = Substance-P receptor (Homo sapiens, UniProt P25103); test: as §1
# [34] = target: 5-hydroxytryptamine receptor 2C (Homo sapiens, UniProt P28335); test: as §1
# [35] = target: Potassium voltage-gated channel subfamily A member 5 (Homo sapiens, UniProt P22460); test: as §1
# D(2) dopamine receptor [36] = target: T1, D(2) dopamine receptor; test: as §1
# [37] = target: Prostaglandin G/H synthase 2 (Homo sapiens, UniProt P35354); test: as §1
# [38] = target: 5-hydroxytryptamine receptor 1B (Homo sapiens, UniProt P28222); test: as §1
# Cannabinoid receptor 2 = Cannabinoid receptor 2 (Homo sapiens, UniProt P34972); test: as §1
# [39] = target: Beta-2 adrenergic receptor (Homo sapiens, UniProt P07550); test: as §1
# D(1A) dopamine receptor = D(1A) dopamine receptor (Homo sapiens, UniProt P21728); test: as §1
# [40] = target: Phosphatidylinositol 4,5-bisphosphate 3-kinase catalytic subunit gamma isoform (Homo sapiens, UniProt P48736); test: as §1
# [41] = target: Voltage-dependent L-type calcium channel subunit alpha-1C (Homo sapiens, UniProt Q13936); test: as §1
# Histamine H1 receptor = Histamine H1 receptor (Homo sapiens, UniProt P35367); test: as §1
# [42] = target: Nuclear receptor subfamily 1 group I member 2 (Homo sapiens, UniProt O75469); test: as §1
# [43] = target: Sodium-dependent serotonin transporter (Homo sapiens, UniProt P31645); test: as §1
# [44] = target: Muscarinic acetylcholine receptor M2 (Homo sapiens, UniProt P08172); test: as §1
# Vasopressin V1a receptor = Vasopressin V1a receptor (Homo sapiens, UniProt P37288); test: as §1
# [45] = target: Transcription intermediary factor 1-alpha (Homo sapiens, UniProt O15164); test: TRIM24(BROMO.) DiscoverX BROMOscan
# [46] = target: Bromodomain and WD repeat-containing protein 1 (Homo sapiens, UniProt Q9NSI6); test: WDR9(2) DiscoverX BROMOscan
# [47] = target: Bromodomain adjacent to zinc finger domain protein 2B (Homo sapiens, UniProt Q9UIF8); test: BAZ2B DiscoverX BROMOscan
# T1 sequence (P14416 whole entry): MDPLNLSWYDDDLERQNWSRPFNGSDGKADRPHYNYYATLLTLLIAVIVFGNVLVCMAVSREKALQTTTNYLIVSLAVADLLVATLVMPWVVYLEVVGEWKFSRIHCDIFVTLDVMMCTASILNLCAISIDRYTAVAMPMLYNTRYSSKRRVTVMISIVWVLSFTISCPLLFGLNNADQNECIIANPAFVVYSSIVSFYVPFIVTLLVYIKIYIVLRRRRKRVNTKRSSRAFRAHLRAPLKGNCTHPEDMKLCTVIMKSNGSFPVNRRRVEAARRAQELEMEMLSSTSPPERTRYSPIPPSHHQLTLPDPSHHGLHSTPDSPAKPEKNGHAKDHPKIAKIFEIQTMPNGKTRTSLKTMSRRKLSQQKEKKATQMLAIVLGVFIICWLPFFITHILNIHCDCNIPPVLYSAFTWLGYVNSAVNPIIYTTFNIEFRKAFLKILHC
# Sequence of 5-hydroxytryptamine receptor 1B (P28222 whole entry): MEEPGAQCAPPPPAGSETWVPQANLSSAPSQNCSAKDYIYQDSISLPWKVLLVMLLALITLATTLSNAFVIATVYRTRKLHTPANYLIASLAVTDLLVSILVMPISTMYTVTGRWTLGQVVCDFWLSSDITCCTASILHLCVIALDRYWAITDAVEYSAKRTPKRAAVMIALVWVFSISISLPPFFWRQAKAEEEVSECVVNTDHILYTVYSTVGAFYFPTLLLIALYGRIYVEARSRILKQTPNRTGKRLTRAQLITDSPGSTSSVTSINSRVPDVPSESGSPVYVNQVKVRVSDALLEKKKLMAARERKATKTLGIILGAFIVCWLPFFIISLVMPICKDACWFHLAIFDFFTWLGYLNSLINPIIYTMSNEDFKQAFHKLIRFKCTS
# Sequence of Beta-2 adrenergic receptor (P07550 whole entry): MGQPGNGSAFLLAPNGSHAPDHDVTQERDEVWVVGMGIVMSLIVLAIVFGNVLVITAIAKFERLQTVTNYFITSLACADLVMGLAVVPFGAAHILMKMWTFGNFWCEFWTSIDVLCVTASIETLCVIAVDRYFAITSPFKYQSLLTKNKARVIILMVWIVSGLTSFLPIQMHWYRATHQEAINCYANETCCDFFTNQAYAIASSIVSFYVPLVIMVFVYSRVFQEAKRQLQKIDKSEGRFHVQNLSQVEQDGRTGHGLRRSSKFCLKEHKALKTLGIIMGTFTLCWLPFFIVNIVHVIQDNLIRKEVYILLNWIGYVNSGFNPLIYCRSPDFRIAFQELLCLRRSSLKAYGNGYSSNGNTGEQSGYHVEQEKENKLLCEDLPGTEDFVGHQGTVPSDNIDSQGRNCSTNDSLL
# Sequence of 5-hydroxytryptamine receptor 3A (P46098 whole entry): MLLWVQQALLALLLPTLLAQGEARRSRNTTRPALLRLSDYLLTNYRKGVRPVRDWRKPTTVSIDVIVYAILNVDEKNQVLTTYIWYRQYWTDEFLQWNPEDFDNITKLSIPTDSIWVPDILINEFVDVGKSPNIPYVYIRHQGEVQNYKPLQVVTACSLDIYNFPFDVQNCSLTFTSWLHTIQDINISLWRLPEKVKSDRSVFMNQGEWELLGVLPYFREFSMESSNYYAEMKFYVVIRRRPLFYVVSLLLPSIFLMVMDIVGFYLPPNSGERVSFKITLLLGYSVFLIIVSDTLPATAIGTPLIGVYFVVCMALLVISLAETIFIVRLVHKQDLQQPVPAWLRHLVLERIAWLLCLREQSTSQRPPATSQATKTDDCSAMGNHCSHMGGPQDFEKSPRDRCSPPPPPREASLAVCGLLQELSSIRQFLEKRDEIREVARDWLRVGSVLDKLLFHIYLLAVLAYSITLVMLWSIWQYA
# Sequence of Muscarinic acetylcholine receptor M1 (P11229 whole entry): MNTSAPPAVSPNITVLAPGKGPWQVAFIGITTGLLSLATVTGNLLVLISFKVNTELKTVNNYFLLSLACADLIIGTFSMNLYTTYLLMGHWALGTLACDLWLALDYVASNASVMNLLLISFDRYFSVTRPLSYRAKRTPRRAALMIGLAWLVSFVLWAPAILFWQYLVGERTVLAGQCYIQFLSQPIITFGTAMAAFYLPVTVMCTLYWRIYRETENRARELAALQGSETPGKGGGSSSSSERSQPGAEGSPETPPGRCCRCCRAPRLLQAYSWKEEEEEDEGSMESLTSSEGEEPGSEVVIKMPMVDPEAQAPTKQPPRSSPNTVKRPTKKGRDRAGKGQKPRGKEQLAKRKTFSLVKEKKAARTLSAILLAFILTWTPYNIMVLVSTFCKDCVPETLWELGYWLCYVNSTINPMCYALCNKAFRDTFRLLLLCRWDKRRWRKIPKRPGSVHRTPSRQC
# Sequence of Muscarinic acetylcholine receptor M2 (P08172 whole entry): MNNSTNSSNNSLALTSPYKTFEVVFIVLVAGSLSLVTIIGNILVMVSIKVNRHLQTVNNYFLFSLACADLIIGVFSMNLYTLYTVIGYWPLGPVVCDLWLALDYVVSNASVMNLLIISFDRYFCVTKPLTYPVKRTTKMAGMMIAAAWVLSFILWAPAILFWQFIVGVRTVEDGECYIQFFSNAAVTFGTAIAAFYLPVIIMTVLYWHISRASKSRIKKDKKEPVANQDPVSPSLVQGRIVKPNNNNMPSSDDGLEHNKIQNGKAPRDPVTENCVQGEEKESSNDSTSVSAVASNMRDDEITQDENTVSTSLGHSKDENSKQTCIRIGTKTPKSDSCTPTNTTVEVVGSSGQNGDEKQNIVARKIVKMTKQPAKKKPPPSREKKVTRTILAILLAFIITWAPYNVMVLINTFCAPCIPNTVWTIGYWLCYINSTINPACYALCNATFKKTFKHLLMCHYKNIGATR
# Sequence of Acetylcholine receptor subunit alpha (P02708 whole entry): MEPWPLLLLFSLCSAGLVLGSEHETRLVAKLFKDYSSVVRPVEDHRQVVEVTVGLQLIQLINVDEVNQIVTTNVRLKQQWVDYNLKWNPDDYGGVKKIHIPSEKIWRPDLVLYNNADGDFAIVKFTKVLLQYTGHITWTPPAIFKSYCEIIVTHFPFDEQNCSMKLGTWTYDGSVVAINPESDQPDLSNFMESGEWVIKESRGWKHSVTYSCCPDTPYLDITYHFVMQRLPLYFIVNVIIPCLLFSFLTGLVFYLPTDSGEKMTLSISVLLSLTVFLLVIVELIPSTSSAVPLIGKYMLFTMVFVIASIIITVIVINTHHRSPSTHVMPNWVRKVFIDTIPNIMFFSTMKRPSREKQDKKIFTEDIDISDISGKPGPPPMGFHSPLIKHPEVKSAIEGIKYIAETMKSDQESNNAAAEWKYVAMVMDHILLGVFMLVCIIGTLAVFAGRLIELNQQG
# Sequence of 5-hydroxytryptamine receptor 3A (Homo sapiens) (P46098 whole entry): as the sequence (P46098 whole entry) above
# Sequence of C-C motif chemokine 2 (P13500 whole entry): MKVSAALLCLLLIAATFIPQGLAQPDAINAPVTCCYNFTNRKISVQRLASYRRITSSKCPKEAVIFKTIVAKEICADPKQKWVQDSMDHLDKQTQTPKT
smiles,measurement,setting,value
CC(=O)Nc1c(F)cc(C(=O)N[C@H]2CC[C@H](O)CC2)cc1O[C@@H](C)c1ccccc1 [GSK046],inhibition,D(2) dopamine receptor [1],25.8%
same,pEC50,[2],< 4
same,Kd,[3],30 µM
same,inhibition,[4],3.77%
same,inhibition,[5],-0.75%
same,pIC50,[6],4.3
same,IC50,[7],11 µM (not active)
same,inhibition,[8],9.38%
same,IC50,[9],> 50.1 µM (not active)
same,Kd,[10],30 µM
same,Kd,[11],30 µM
same,pIC50,[12],5
same,Kd,[13],0.035 µM (active)
same,pIC50,[14],6.6
same,IC50,C-C motif chemokine 2,0.316 µM (active)
same,Kd,[15],30 µM
same,Kd,[16],30 µM
same,Kd,[17],30 µM
same,inhibition,[18],15.3%
same,EC50,[19],> 50.1 µM
same,IC50,[19],> 50.1 µM
same,IC50,[20],> 100 µM
same,IC50,[21],> 100 µM
same,IC50,Acetylcholinesterase,7.94 µM
same,EC50,Mu-type opioid receptor,> 100 µM
same,EC50,[22],> 100 µM
same,IC50,Aurora kinase B,> 31.6 µM
same,EC50,[23],> 100 µM
same,IC50,[24],> 100 µM
same,EC50,[25],> 50.1 µM
same,IC50,[25],> 50.1 µM
same,EC50,[26],> 50.1 µM
same,IC50,[26],25.1 µM
same,IC50,[27],> 50.1 µM
same,EC50,Adenosine receptor A2a,31.6 µM
same,IC50,[28],> 50.1 µM
same,Ki,[29],> 25.1 µM
same,EC50,[30],> 100 µM
same,IC50,[31],> 31.6 µM
same,EC50,[32],> 25.1 µM
same,IC50,[33],> 100 µM
same,IC50,Substance-P receptor,> 25.1 µM
same,EC50,[34],> 25.1 µM
same,IC50,[35],> 50.1 µM
same,EC50,D(2) dopamine receptor [36],> 100 µM
same,Ki,D(2) dopamine receptor [36],> 100 µM
same,IC50,[37],> 100 µM
same,EC50,[38],> 100 µM
same,IC50,[38],> 100 µM
same,EC50,Cannabinoid receptor 2,> 100 µM
same,EC50,[39],> 100 µM
same,IC50,[39],> 100 µM
same,IC50,D(1A) dopamine receptor,> 100 µM
same,IC50,[40],> 31.6 µM
same,IC50,[41],100 µM
same,IC50,Histamine H1 receptor,> 25.1 µM
same,EC50,[42],> 50.1 µM
same,IC50,[43],> 100 µM
same,EC50,[44],> 50.1 µM
same,IC50,[44],> 50.1 µM
same,IC50,Vasopressin V1a receptor,> 39.8 µM
same,Kd,[45],30 µM
same,Kd,[46],30 µM
same,Kd,[47],30 µM
